# Measured values published in patent US5527820A, “Antibiotics having immunosuppressive activity, delaminomycins and processes for the production of the same” (priority 1992, dated 1996).
# Legend:
# [1] = system: Saccharomyces cerevisiae F-7; test: MIC, agar plate dilution method; type: cell-based; details: F7, 27° C., 42 hours, nutrient agar containing glucose
# [2] = in vivo
# [3] = system: delayed-type hypersensitivity (DTH); test: Suppressive effect on delayed-type hypersensitivity (DTH) in mouse, oral; type: in vivo, mouse (CDF1); details: oral once a day, 0~4th day
# Description: (§1) CDF1 mice were immunized by intravenously injecting sheep red blood cells (10^5 cells/mouse). On the 4th day after the immunization, sheep red blood cells (10^8 cells/mouse) were subcutaneously injected into the footpad of mice for the elicitation to cause a delayed-type hypersensitivity. Test compound was orally administered to the mice once a day from the 0 th day to the 4 th day after the immunization. On the 5th day after the elicitation, the thickness of the mouse footpad was measured to estimate the suppressive effect of the test compound on DTH. The suppressive effect of the test compound was evaluated in terms of the inhibition rate (%) as calculated according to the following equation:
# (§2) Inhibition rate (%)=100-(T/C×100)
# wherein T denotes the thickness of the footpad when the test compound was administered, but C denotes the thickness of the footpad when no test compounnd was administered.
# [4] = system: Mouse melanoma B-16; test: Inhibitory activity on proliferation of cancer cells; type: cell-based; details: B16
# [5] = system: Trichophyton mentagrophytes F-15 (833); test: MIC, agar plate dilution method; type: cell-based; details: 27° C., 42 hours, nutrient agar containing glucose
# [6] = system: nylon wool-passed cells of spleen cells (responder cell; T cells); test: Inhibitory activity to the mixed lymphocyte culture reaction; type: cell-based, rat (Fischer F344 responder; WKY stimulator)
# [7] = system: Human Lymphoma Jurkat; test: Inhibitory activity on proliferation of cancer cells; type: cell-based
# [8] = system: Candida krusei F-5; test: MIC, agar plate dilution method; type: cell-based; details: Pichia kudriavzevii, F5; 27° C., 42 hours, nutrient agar containing glucose
# [9] = system: Candida pseudotropicalis F-2; test: MIC, agar plate dilution method; type: cell-based; details: Kluyveromyces marxianus, F2; 27° C., 42 hours, nutrient agar containing glucose
# [10] = system: Cryptococcus neoformans F-10; test: MIC, agar plate dilution method; type: cell-based; details: F10, 27° C., 42 hours, nutrient agar containing glucose
# [11] = system: spleen cells (T cells activated by Concanavalin A); test: Inhibitory activity against blastogenesis and proliferation of spleen cells caused by mitogen (Con A); type: cell-based, mouse (CDF1)
# [12] = system: Mouse leukemia L-1210; test: Inhibitory activity on proliferation of cancer cells; type: cell-based; details: L1210
# [13] = system: Pellicularia sasakii; test: MIC, agar plate dilution method; type: cell-based; details: 27° C., 42 hours, nutrient agar containing glucose
# [14] = system: Piricularia oryzae; test: microbe, parasite or virus in culture; type: cell-based; details: 42 h
# [15] = system: Cochliobolus miyabeanus; test: MIC, agar plate dilution method; type: cell-based; details: Bipolaris oryzae; 27° C., 42 hours, nutrient agar containing glucose
# Description: (§3) Delaminomycins A, B, C, A2, B2 and C2 according to this invention further have an antibacterial activity against a variety of bacteria. The minimum growth inhibitory concentrations (MIC) (μg/ml) of the novel antibiotics of this invention on various bacteria and fungi as measured by the agar plate dilution method are shown in Table 5a, Table 5b, Table 5c and Table 5d below.
# (§4) Evaluated after culturing at 27° C. for 42 hours in nutrient agar
# (§5) medium containing glucose.
# [16] = system: Xanthomonas citri; test: MIC, agar plate dilution method; type: cell-based; details: 27° C., 42 hours, nutrient agar containing glucose
# Description: as §3, §4, §5
# [17] = system: Mouse leukemia EL-4; test: Inhibitory activity on proliferation of cancer cells; type: cell-based; details: EL4
# [18] = system: Trichophyton asteroides 429; test: MIC, agar plate dilution method; type: cell-based; details: 27° C., 42 hours, nutrient agar containing glucose
# [19] = system: Candida Yu-1200; test: MIC, agar plate dilution method; type: cell-based; details: YU1200, 27° C., 42 hours, nutrient agar containing glucose
# [20] = system: Gram-positive bacteria; test: Antibacterial activity to Gram-positive bacteria; type: cell-based; details: result in words
# From the text: as §3
# [21] = system: Mouse leukemia P388D1; test: Inhibitory activity on proliferation of cancer cells; type: cell-based
# [22] = system: Aspergillus niger F-16; test: MIC, agar plate dilution method; type: cell-based; details: F16, 27° C., 42 hours, nutrient agar containing glucose
# [23] = system: Candida albicans 3147; test: MIC, agar plate dilution method; type: cell-based; details: 27° C., 42 hours, nutrient agar containing glucose
# [24] = system: delayed-type hypersensitivity (DTH); test: Suppressive effect on delayed-type hypersensitivity (DTH) in mouse, intraperitoneal; type: in vivo, mouse (CDF1); details: intraperitoneal once a day, 0-4th day
# From the text: Suppressive effect of delaminomycins on delayed-type hypersensitivity (DTH) in mouse
# as §1, with “hypersensitivity (DTH).” for “hypersensitivity.”, “intraperitoneally” for “orally”, “0th” for “0 th”, “4th” for “the 4 th”, “elicitation” for “elicitation,”, “the DTH response.” for “DTH.”
# as §2
# wherein T denotes the thickness of the footpad when administering the test compound, but C denotes the thickness of the footpad when administering no test compound.
# [25] = system: Candida tropicalis F-1; test: MIC, agar plate dilution method; type: cell-based; details: F1, 27° C., 42 hours, nutrient agar containing glucose
structure (smiles),measurement,setting,value
CCC(O)C(C)/C=C/C=C/C1CC2C=CC3CC(C)CC(C)C3C2(C)C(=O)C12C(=O)NC(O)C2=O (stereo not drawn) [Delaminomycin A2],MIC,[1],> 100 µg/mL
same,absorption into the digestive tracts / oral absorption,[2],hardly absorbed into the digestive tracts
same,Inhibition rate (DTH footpad thickness),[3]; 0.5 mg/mouse,7.7%
same,Inhibition rate (DTH footpad thickness),[3]; 2.0 mg/mouse,23.4%
same,Inhibition rate (DTH footpad thickness),[3]; 8.0 mg/mouse,36.1%
same,IC50,[4],8.3 µg/mL
same,MIC,[5],> 100 µg/mL
same,inhibition at 0.1 µg/mL,"[6]; Rattus norvegicus, T-cell, 0.10 μg/ml test compound, read-out: Inhibition rate",16%
same,inhibition at 0.39 µg/mL,"[6]; Rattus norvegicus, T-cell, 0.39 μg/ml test compound, read-out: Inhibition rate",5%
same,inhibition at 1.56 µg/mL,"[6]; Rattus norvegicus, T-cell, 1.56 μg/ml test compound, read-out: Inhibition rate",0%
same,inhibition at 25 µg/mL,"[6]; Rattus norvegicus, T-cell, 25 μg/ml test compound, read-out: Inhibition rate",94%
same,inhibition at 100 µg/mL,"[6]; Rattus norvegicus, T-cell, 100 μg/ml test compound, read-out: Inhibition rate",56%
same,IC50,"[6]; Rattus norvegicus, T-cell, 120 hours, 3H-thymidine incorporation, read-out: IC50 (inhibition of mixed lymphocyte culture reaction)",13.9 µg/mL
same,activity to inhibit the proliferation of the T cells (responder cell) in mixed lymphocyte culture reaction,"[6]; in vitro, result in words",have an activity to inhibit the reaction of proliferation of the T cells
same,IC50,[7],5.9 µg/mL
same,MIC,[8],> 100 µg/mL
same,MIC,[9],> 100 µg/mL
same,MIC,[10],> 100 µg/mL
same,IC50,"[11]; Mus musculus, T-cell, read-out: IC50 (inhibition of blastogenesis and proliferation of spleen lymphocyte caused by Con A)",0.78 µg/mL
same,inhibition at 0.2 µg/mL,"[11]; Mus musculus, T-cell, 0.20 μg/ml test compound, read-out: Inhibition rate",1.5%
same,inhibition at 0.78 µg/mL,"[11]; Mus musculus, T-cell, 0.78 μg/ml test compound, read-out: Inhibition rate",50.5%
same,inhibition at 3.1 µg/mL,"[11]; Mus musculus, T-cell, 3.1 μg/ml test compound, read-out: Inhibition rate",76.3%
same,inhibition at 12.5 µg/mL,"[11]; Mus musculus, T-cell, 12.5 μg/ml test compound, read-out: Inhibition rate",95.1%
same,inhibition at 50 µg/mL,"[11]; Mus musculus, T-cell, 50 μg/ml test compound, read-out: Inhibition rate",96.5%
same,activity inhibitory to the reaction of proliferation of mouse spleen cells activated with Concanavalin A,"[11]; in vitro, result in words",exhibit an activity inhibitory to the reaction of proliferation of mouse spleen cells
same,IC50,[12],3.7 µg/mL
same,MIC,[13],> 50 µg/mL
same,MIC,[14],> 100 µg/mL
same,MIC,[15],> 100 µg/mL
same,MIC,[16],> 100 µg/mL
same,IC50,[17],4.1 µg/mL
same,MIC,[18],> 100 µg/mL
same,MIC,[19],> 100 µg/mL
same,antibacterial activity to Gram-positive bacteria,[20],antibacterial activity to Gram-positive bacteria
same,IC50,[21],10 µg/mL
same,MIC,[22],> 100 µg/mL
same,MIC,[23],> 100 µg/mL
same,Inhibition rate (DTH footpad thickness),[24]; 15.6 μg/mouse,1.9%
same,Inhibition rate (DTH footpad thickness),[24]; 62.5 μg/mouse,3.5%
same,Inhibition rate (DTH footpad thickness),[24]; 250 μg/mouse,26.6%
same,Inhibition rate (DTH footpad thickness),[24]; 1000 μg/mouse,99.3%
same,MIC,[25],> 100 µg/mL
